In patent US6569446B1, “Solubilization of flavonols” (The Howard Foundation, priority 1996, dated 2003):
Converted amounts (≈) assume the structure as drawn.

What was measured:
[1] = Solubilization of quercetin, quercitrin and rutin by heat in water, grape anthocyanin and malvin chloride solutions (Example 6); assay type: physicochemical; conditions: thermodynamic from solid
Procedure: Quercetin is a flavonol aglycone. In fruit juices it exists as the glycoside. The purpose of the investigation was to examine the solubilization of glycosides of flavonols by anthocyanins. […] Samples were diluted in water 1:9 before reading. Aliquots of anthocyanin and water with and without the flavonol were treated similarly.
The same procedure was used for measuring the solubility of the flavonols in malvin chloride. In this case 1.8 mg malvin chloride was dissolved in 2.0 ml citrate buffer at pH3. To 1 ml was added 2 mg of the flavonol, the other 1 ml acted as a control. After heating, the mixture was cooled to room temperature, centrifuged, and the supernatant diluted 1:9 with 50% aqueous ethanol. The optical densities were measured at 375 nm.

[2] = Solubility of solid quercetin in liquids after heating to boiling in microwave oven (Example 3); assay type: physicochemical; conditions: 20 °C, thermodynamic from solid
Procedure: To investigate dissolution by heat, the liquids were heated in a sealed tube for 1 min in a microwave oven (when boiling of the liquid occurred) and cooled to room temperature.

physchem = assay type: physicochemical; conditions: 20 °C, aqueous with cosolvent or surfactant or cyclodextrin, kinetic from dmso stock
Procedure: The procedure used was as follows: anthocyanin powder was dissolved in deionised water to give concentrations of 0.625, 1.25, 2.5, 10 and 20 mg/ml. […] The mixtures were allowed to stand for 20 to 30 min and then centrifuged at 2000×g for 30 min at 20° C. The optical densities were measured at 258 nm and 375 nm as in Example 1. To 5 ml of each corresponding anthocyanin solution was added the same volume of ethanol determined above to give a precipitate, and the optical densities measured. […] The control was water.
Since quercitin is more soluble in aqueous ethanol than water a further series of controls were prepared in which quercetin in ethanol was added to water in amounts corresponding to those used in the test, and the solubilities likewise determined. […] To solubilize quercetin more anthocyanin was needed than quercetin w/w.

[3] = ileostomy subjects (Hollman et al 1995); cited from earlier work
[4] = Solubility of solid quercetin mixed with liquids at room temperature (Example 3); assay type: physicochemical; conditions: 20 °C, thermodynamic from solid, Room temp
[5] = Solubilization of quercetin in aqueous malvin chloride by addition of ethanol solution of quercetin (Example 5); assay type: physicochemical
Procedure: The anthocyanins can be divided into two major classes: the monomeric anthocyanins and the polymeric anthocyanins. A typical example of a monomeric anthocyanin is malvin chloride, a salt of the oxonium ion malvidin-3-glucose and the chloride ion. It can be obtained in a high state of purity (Indofine Inc, USA) and therefore used to determine the solubilizing effect of an anthocyanin monomer. The procedure was as follows: malvin chloride (2.2 mg) was dissolved in 2 ml citrate buffer (pH 3.0)—one ml acted as a control. […] Equal amounts of ethanol were added to the control. Each solution was diluted (1:9) with 5% aqueous ethanol and the optical density determined at 275 nm.

[6] = aqueous with cosolvent or surfactant or cyclodextrin
[7] = pH 3, aqueous with cosolvent or surfactant or cyclodextrin

**Q.** For `C[C@@H]1O[C@@H](Oc2c(-c3ccc(O)c(O)c3)oc3cc(O)cc(O)c3c2=O)[C@H](O)[C@H](O)[C@H]1O` [Quercitrin, quercetin 3-L-rhamnoside], which solubility at 1 min [1, 6] is on record?
**A.** 316 µg/mL (≈ 705 µM)

**Q.** And the solubility at 1 min [1, 7]?
**A.** 127 µg/mL (≈ 283 µM)

**Q.** What about the solubility at 1 min ([1]; water) of the same molecule?
**A.** 53 µg/mL (≈ 118 µM)

**Q.** Which results are given for `C[C@@H]1O[C@@H](OC[C@H]2O[C@@H](Oc3c(-c4ccc(O)c(O)c4)oc4cc(O)cc(O)c4c3=O)[C@H](O)[C@@H](O)[C@@H]2O)[C@H](O)[C@H](O)[C@H]1O` [Rutin, quercetin 3β-D-rutinoside hydrate]?
**A.** solubility at 1 min [1, 6]: 260 µg/mL; solubility at 1 min [1, 7]: 74 µg/mL; solubility at 1 min ([1]; water): 36 µg/mL

**Q.** What does the source list for `O=c1c(O)c(-c2ccc(O)c(O)c2)oc2cc(O)cc(O)c12` [quercetin]?
**A.** solubility at 1 min ([2]; aqueous with cosolvent or surfactant or cyclodextrin, Boiling, Rosé D'Anjou (F)): 9 µg/mL (≈ 29.8 µM); solubility at 1 min ([2]; water, Solubility of quercetin): 2 µg/mL (≈ 6.62 µM); solubility at 1 min [1, 6]: 90 µg/mL (≈ 298 µM); solubility at 1 min [1, 7]: 28 µg/mL (≈ 92.6 µM); solubility at 1 min ([1]; water): 2 µg/mL (≈ 6.62 µM); solubility (physchem): 13 µg/mL (≈ 43 µM); solubility (physchem; Solubility of quercetin, 20 mg grape anthocyanin powder/ml, in a 22% ethanol solution): 75 µg/mL (≈ 248 µM); absorption [3]: 25%; solubility at 3 h ([4]; aqueous with cosolvent or surfactant or cyclodextrin, Ethanol 12% v/v): 1 µg/mL (≈ 3.31 µM); solubility at 3 h ([4]; aqueous with cosolvent or surfactant or cyclodextrin, Red wine Cabernet-Sauvignon (F)): 3 µg/mL (≈ 9.93 µM); solubility at 3 h ([4]; aqueous with cosolvent or surfactant or cyclodextrin, grape Anthocyanin powder 1 g/L in water): 0.7 µg/mL (≈ 2.32 µM); solubility at 3 h ([4]; Water, OD 375 nm): 0.3 µg/mL (≈ 0.993 µM); solubility ([5]; 20% v/v ethanol, aqueous with cosolvent or surfactant or cyclodextrin, ethanol 20% v/v, without malvin chloride): 13 µg/mL (≈ 43 µM); Solubility of quercetin in presence of malvin chloride ([5]; citrate buffer pH 3.0, 20% v/v ethanol, possibly super saturated): extremely soluble; quercetin added to 1 ml malvin chloride with no precipitate ([5]; malvin chloride 1.1 mg/ml in citrate buffer pH 3.0, quercetin added in ethanol, slight precipitate at 1000 μg): 750 µg
